The results in this text go back to patent US6083981A, “Sulfonamide substituted aspartic acid interleukin-1β converting enzyme inhibitors” (Warner-Lambert Company, priority 1999, dated 2000).

The target of data set [1] is T1, ICE (Homo sapiens, UniProt P29466).
T1 sequence (P29466 120-297 limits assumed): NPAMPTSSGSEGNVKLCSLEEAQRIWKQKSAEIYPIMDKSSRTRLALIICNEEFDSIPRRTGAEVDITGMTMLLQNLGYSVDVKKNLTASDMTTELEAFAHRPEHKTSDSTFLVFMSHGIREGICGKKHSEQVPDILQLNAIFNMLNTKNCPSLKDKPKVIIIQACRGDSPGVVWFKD
T1 sequence (P29466 317-404 limits assumed): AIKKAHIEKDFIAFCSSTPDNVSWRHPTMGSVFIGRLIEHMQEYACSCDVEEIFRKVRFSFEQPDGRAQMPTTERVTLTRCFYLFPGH
The data set is described as follows: ICE inhibition, fluorometric Ki (Ac-Tyr-Val-Ala-Asp-AMC substrate). As to conditions: 0.24 nM ICE, 15 μM Ac-Tyr-Val-Ala-Asp-AMC, reversible competitive model. It is filed as biochemical. As to the method: Substrate hydrolysis is monitored for 300 seconds by observing the fluorescence of released AMC using excitation at 380 nm and emission at 460 nm. Mean rates of substrate hydrolysis are evaluated by linear-regression analysis of the fluorescence vs time traces.

In data set [2] the target is T1, ICE. Kind of data set: ICE Colorimetric Dose-Response (IC50) Assay. The settings on record: 24 nM ICE, 60 min preincubation, 50 μM Ac-Tyr-Val-Ala-Asp-pNA, pH 7.5, 25° C. It is filed as biochemical. As to the method: Aliquots of each dilution are transferred to a microtitre plate in triplicate.
(§1) ICE enzyme is diluted to approximately 24 nM in HGE buffer (100 mM Hepes pH 7.5, 0.5 mM EDTA, 20% glycerol, 0.1% Bovine Serum Albumin (BSA), and activated by adding dithiothreitol (DTT) to a final concentration of 5 mM. The activated enzyme is then aliquoted into wells containing inhibitor or vehicle, and the plate is preincubated for 60 minutes at ambient temperature. Substrate (Ac--Tyr--Val--Ala--Asp--pNA) is added to each well to a final concentration of 50 μM, and plates are placed in the microtitre plate-reader thermostated to 25° C. Beginning 5 minutes after addition of substrate, absorbance (405 nm) of wells is monitored for 1 hour, and activity is calculated as the mean rate of change in absorbance during this interval.

For the next data set, the target named is T2, Ich-2 (Caspase-4) (Homo sapiens, UniProt P49662).
T2 sequence (P49662 81-270 limits assumed): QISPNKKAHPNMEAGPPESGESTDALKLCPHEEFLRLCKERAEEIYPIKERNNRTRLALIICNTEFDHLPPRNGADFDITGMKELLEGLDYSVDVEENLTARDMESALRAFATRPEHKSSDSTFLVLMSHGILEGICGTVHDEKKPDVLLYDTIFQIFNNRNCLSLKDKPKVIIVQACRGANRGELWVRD
T2 sequence (P49662 290-377 limits assumed): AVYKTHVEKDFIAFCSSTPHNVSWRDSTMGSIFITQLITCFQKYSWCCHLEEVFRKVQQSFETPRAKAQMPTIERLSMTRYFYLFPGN
The data set is described as follows: Ich-2 (Caspase-4) Colorimetric Dose-Response (IC50) Assay. It is filed as biochemical. The settings on record: 64 nM enzyme, 60 μM Ac-Leu-Glu-Val-Asp-pNA. As to the method: as §1
Inhibition of Ich-2 enzyme is assayed as described above for ICE, except that enzyme is used at 64 nM, and 60 μM of the Ich-2-specific substrate Ac--Leu--Glu--Val--Asp--pNA is used instead of the ICE substrate Ac--Tyr--Val--Ala--Asp--pNA.

Data set [3] concerns IL-1β production in human peripheral blood mononuclear cells (PBMCs). Kind of data set: PBMC Cellular Assay, inhibition of LPS-stimulated IL-1β production. It is filed as cell-based. The settings on record: PBMC; mature IL-1β by ELISA, 10 ng/mL LPS overnight, 2% human AB serum. From the text: (§2) Further evidence that compounds of Formula I, II, and III are inhibitors of ICE is provided by their ability to inhibit IL-1β production in human peripheral blood mononuclear cells (PBMCs) as described herein. PBMCs are isolated from heparinized blood by centrifugation over a ficoll cushion, then washed three times with phosphate-buffered saline. PBMCs are suspended in a medium containing RPMI 1640 with glutamine, penicillin, streptomycin, and 2% human AB serum, then plated at 10^6 cells per well in 96 well flat bottom plates. PBMCs are stimulated overnight with 10 ng/mL of lipopolysaccharide (LPS, E. Coli strain 0111:B4; Calbiochem) in the presence or absence of a compound of Formula I. Medium is harvested and the level of mature IL-1β was determined using an ELISA kit from R & D Systems. Compound inhibition is assessed by determining the concentration of agent which reduces IL-1β levels by 50%. Cells were cultured for an additional four hours in the presence of 3-(4,5-dimethylthiazol-2-yl)-2,5-diphenyltetrazolium bromide (MTT) to determine viability. Compound toxicity can, therefore, be assessed by determining the concentration of agent which kills 50% of the cells (IC50).
A general note: An ELISA detects its analyte on a solid surface through an enzyme-linked reagent.

A short description of data set [4]: PBMC viability (MTT), compound toxicity. It is filed as cell-based. The settings on record: human, MTT viability, additional four hours, concentration which kills 50% of the cells, read-out: PBMC TC50.
Source text: as §2

What is called Ki is the equilibrium dissociation constant of an inhibitor or competing ligand from its target. The low end stands for a stronger hold on the target, the high end for a looser hold on the target. As a reminder, the IC50 is the midpoint of a concentration-inhibition curve. In turn, “3-(2-Methylbutoxy-Benzenesulfonylamino)-4-Oxo-Butyric Acid [Example 30]” gave a Ki on ICE [1] of 4.2 µM. The IC50 was found to be 37 µM on ICE [2] and 221 µM at Ich-2 (Caspase-4).

`O=C[C@H](CC(=O)O)NS(=O)(=O)c1ccccc1-c1ccccc1` [Example 1, 3-(Biphenyl-2-Sulfoamino)-4-Oxo-Butyric Acid] registered a Ki at ICE [1] of 1.6 µM. Besides, the IC50 is 20.3 µM on ICE [2], above 100 µM in data set [3] and 88 µM against Ich-2 (Caspase-4). The CC50 in data set [4] was above 100 µM.

As to `O=C[C@H](CC(=O)O)NS(=O)(=O)c1ccccc1` [Example 2, 3-Benzenesulfonylamino-4-Oxo-Butyric Acid], the inhibition constant Ki on ICE [1] worked out at 6.8 µM. Moreover, the IC50 was 86.8 µM against ICE [2], above 100 µM in data set [3] and 259 µM on Ich-2 (Caspase-4).

As to `O=C[C@H](CC(=O)O)NS(=O)(=O)c1ccccc1Cc1ccccc1` [Example 3, 3-(2-Benzyl-Benzenesulfonylamino)-4-Oxo-Butyric Acid], on ICE [1], affinity was put at a Ki of 3.7 µM. The IC50 is 37 µM against ICE [2] and 70 µM against Ich-2 (Caspase-4).

`O=CC(CC(=O)O)NS(=O)(=O)c1ccccc1Oc1ccccc1` (centres unmarked) [Example 4, 4-Oxo-3-(2-Phenoxy-Benzenesulfonylamino)-Butyric Acid]: the figures for the IC50 on ICE [2] and against Ich-2 (Caspase-4) were 24 µM and 52 µM, respectively.

As for `Cc1ccc(Oc2ccccc2S(=O)(=O)N[C@H](C=O)CC(=O)O)cc1` [Example 5, 4-Oxo-3-(2-p-Tolyloxy-Benzenesulfonylamino)-Butyric Acid], the 50% inhibitory concentration (IC50) at ICE [2] was determined as 8.8 µM; in data set [3], 67.5 µM; on Ich-2 (Caspase-4), 18 µM. Besides, the CC50 in data set [4] is above 100 µM.

As for `CC(C)c1ccc(Oc2ccccc2S(=O)(=O)NC(C=O)CC(=O)O)cc1` (centres unmarked) [Example 6, 3-[2-(4-Isopropyl-Phenoxy)-Benzenesulfonylamino]-4-Oxo-Butyric Acid], the Ki on ICE [1] turned out to be 0.54 µM. The IC50 against ICE [2] amounted to 5.3 µM; in data set [3] it was 23.5 µM; on Ich-2 (Caspase-4), 6.1 µM. Moreover, the CC50 in data set [4] is above 100 µM.

In the case of `Cc1cccc(Oc2ccccc2S(=O)(=O)N[C@H](C=O)CC(=O)O)c1` [Example 7, 4-Oxo-3-(2-m-Tolyloxy-Benzenesulfonylamino)-Butyric Acid], the values for the IC50 (at ICE [2]; in data set [3]; against Ich-2 (Caspase-4)) were 10.8 µM, 67.5 µM and 33 µM, respectively. Besides, the CC50 in data set [4] was above 100 µM.

With `CC(C)c1cccc(Oc2ccccc2S(=O)(=O)N[C@H](C=O)CC(=O)O)c1` [Example 8, 3-[2-(3-lsopropyl-Phenoxy)-Benzenesulfonylamino]-4-Oxo-Butyric Acid], the affinity on ICE [1] corresponds to a Ki of 0.41 µM. Further, the IC50 was 3.7 µM on ICE [2], 45 µM in data set [3] and 6.1 µM on Ich-2 (Caspase-4). Moreover, the CC50 in data set [4] was above 100 µM.

In turn, `Cc1ccc(-c2ccccc2S(=O)(=O)NC(C=O)CC(=O)O)cc1` (centres unmarked) [Example 9, 3-(4'-Methyl-Biphenyl-2-Sulfonylamino)-4-Oxo-Butyric Acid] came in with a Ki at ICE [1] of 6.4 µM. Also, the IC50 stood at 66.2 µM at ICE [2] and 109 µM at Ich-2 (Caspase-4).

At ICE [1], `CC(C)COc1ccccc1S(=O)(=O)NC(C=O)CC(=O)O` (centres unmarked) [Example 10, 3-(2-Isobutoxy-Benzenesulfonylamino)-4-Oxo-Butyric Acid] came in with a Ki of 4.2 µM. Besides, the figures for the IC50 (at ICE [2]; in data set [3]; at Ich-2 (Caspase-4)) were 22 µM, 90 µM and 318 µM, respectively. The CC50 in data set [4] was above 100 µM.

As to `CCCC(C)C(=O)Nc1ccccc1S(=O)(=O)N[C@H](C=O)CC(=O)O` (some centres unmarked) [Example 11, 3-[2-(2-Methyl-Pentanoylamino)-Benzenesulfonylamino]-4-Oxo-Butyric Acid], the Ki at ICE [1] worked out at 17 µM. For the same compound, the IC50 against ICE [2] was 55 µM; at Ich-2 (Caspase-4), 569 µM.

The compound `Cc1ccccc1Oc1ccccc1S(=O)(=O)NC(C=O)CC(=O)O` (centres unmarked) [Example 12, 4-Oxo-3-(2-o-Tolyloxy-Benzenesulfonylamino)-Butyric Acid] yielded a Ki at ICE [1] of 3 µM. Besides, the half-maximal inhibitory concentration (IC50) against ICE [2] amounted to 14 µM; in data set [3], 90 µM; against Ich-2 (Caspase-4) it was 59 µM. In addition, the CC50 in data set [4] was above 100 µM.

The compound `O=CC(CC(=O)O)NS(=O)(=O)c1ccccc1CCc1ccccc1` (centres unmarked) [Example 13, 4-Oxo-3-(2-Phenethyl-Benzenesulfonylamino)-Butyric Acid] displayed a Ki on ICE [1] of 7 µM. Also, the figures for the IC50 at ICE [2] and on Ich-2 (Caspase-4) were 32 µM and 167 µM, respectively.

With `Cc1cc(Oc2ccccc2S(=O)(=O)NC(C=O)CC(=O)O)ccc1C(C)C` (centres unmarked) [Example 22, 3-[2-(4-Isopropyl-3-Methyl-Phenoxy)-Benzenesulfonylamino]-4-Oxo-Butyric Acid], the IC50 against ICE [2] worked out at 1 µM; in data set [3], 25 µM; against Ich-2 (Caspase-4), 76 µM. For the same compound, the CC50 in data set [4] is above 100 µM.

`CCC(CC)c1ccc(Oc2ccccc2S(=O)(=O)NC(C=O)CC(=O)O)cc1` (centres unmarked) [Example 25, 3-{2-[4-(1-Ethyl-Propyl)-Phenoxy]-Benzenesulfonylamino}-4-Oxo-Butyric Acid]: the IC50 at ICE [2] was found to be 3.5 µM; in data set [3] it was 27 µM; against Ich-2 (Caspase-4), 6.5 µM. In addition, the CC50 in data set [4] is above 100 µM.

Turning to `Cc1cc(Oc2ccccc2S(=O)(=O)NC(C=O)CC(=O)O)cc(C)c1C` (centres unmarked) [Example 26, 4-Oxo-3-[2-(3,4,5-Trimethyl-Phenoxy)-Benzenesulfonylamino]-Butyric Acid], the IC50 is 7.8 µM at ICE [2], 58 µM in data set [3] and 23 µM on Ich-2 (Caspase-4). In data set [4], the CC50 is above 100 µM.

Compound `Cc1ccccc1-c1ccccc1S(=O)(=O)NC(C=O)CC(=O)O` (centres unmarked) [Example 32, 3-(2'-Methyl-Biphenyl-2-Sulfonylamino)-4-Oxo-Butyric Acid] showed a Ki at ICE [1] of 7 µM. The IC50 against ICE [2] is 28 µM; against Ich-2 (Caspase-4), 603 µM.

Take `O=CC(CC(=O)O)NS(=O)(=O)c1ccccc1-c1cccc2ccccc12` (centres unmarked) [Example 33, 3-(2-Naphthalen-1-yl-Benzenesulfonylamino)-4-Oxo-Butyric Acid]: affinity at ICE [1] was put at a Ki of 7 µM. The midpoint of inhibition against Ich-2 (Caspase-4), the IC50, lay at 77 µM.

`O=CC(CC(=O)O)NS(=O)(=O)c1cccc2ccccc12` (centres unmarked) [Example 34, 3-(Naphthalene-1-Sulfonylamino)-4-Oxo-Butyric Acid] showed a Ki on ICE [1] of 31 µM. Moreover, the IC50 turned out to be 110 µM against ICE [2] and 602 µM on Ich-2 (Caspase-4).

In the case of `O=CC(CC(=O)O)NS(=O)(=O)c1ccccc1OCC1CCCO1` (centres unmarked) [Example 43, 4-Oxo-3-[2-(Tetrahydro-Furan-2-Ylmethoxy)-Benzenesulfonylamino]-Butyric Acid], at ICE [1], the affinity corresponds to a Ki of 7.7 µM. The IC50 was found to be 99 µM against ICE [2] and 1970 µM at Ich-2 (Caspase-4).

For the compound `O=CC(CC(=O)O)NS(=O)(=O)c1ccccc1[N+](=O)[O-]` (centres unmarked) [Example 46, 3-(2-Nitro-Benzenesulfonylamino)-4-Oxo-Butyric Acid], the affinity on ICE [1], expressed as Ki, was 10 µM. Further, the IC50 was 130 µM at ICE [2] and 525 µM against Ich-2 (Caspase-4).
